Legend:
[1] = buffer, pH 7.4; cited from earlier work
parent A549 cells = experiment: MTT viability/proliferation in media containing 600 μM DETA-NONOate; type: cell-based, human; conditions: 600 μM donor, 72 hour period
Method: (§1) Viability of Long Term NO Adapted Cultures: Cells from each of the cell lines were seeded (100 μL) into 96-wellmicrotiter plates and grown for 24 h, to ˜70% confluency. The media was then removed, and the cells were treated with 100-μL media containing varying concentrations (0-600 μM) of DETA-NONOate. Following an additional 72-h incubation period, cell proliferation/viability was assessed using the 3-(4,5-dimethylthiazol-2-yl)-2,5-diphenyltetrazolium bromide (MTT) assay. Media was removed from each well, and 100 μL of 2 mg/mL of MTT (Sigma-Aldrich Corp., St. Louis, Mo. USA) in phosphate buffer saline (PBS) was added. Plates were then placed in an incubator (37° C.) for 5 h, during which time purple formazan crystals formed upon the reaction of the MTT with mitochondrial dehydrogenases of viable cells. Following the incubation period, the MTT solution was removed, and 100 μL of dimethyl sulfoxide (DMSO) was added. The absorbance of the resulting purple solution in each well was read (540 nm) using a SpectraMax® Plus 384 spectrophotometer (Molecular Devices, Inc., Sunnyvale, Calif., USA). Each experiment was independently conducted a minimum of three times, and a minimum of four replicate wells were tested for each cell line at each concentration. Data were normalized to the mean optical density of the untreated control cells. […]

tumor cell lines = experiment: MTT viability after 72 h exposure to 0-600 μM DETA-NONOate; type: cell-based; conditions: doses 0-600 μM
Method: as §1

LP07 parent cells = experiment: MTT viability/proliferation in media containing 300 μM DETA-NONOate; type: cell-based, mouse; conditions: LP07 cell line
Method: as §1

[2] = tested on: five HNSCC cell lines, parent cells; experiment: MTT viability/proliferation in media containing 600 μM DETA-NONOate; type: cell-based, human
Method: as §1

[3] = tested on: MCF-7 parent and HNO cells
Method: (§2) Exposure to Radicals: Cells were exposed to varying concentrations of hydrogen peroxide to determine if the adapted cells were resistant to high free radical environments generated by oxygen-based free radicals. Parent and adapted cells were seeded (100 μL) into 96-well microtiter plates in the appropriate media (parent cells in media without NO donor, HNO cells in media supplemented with 600 μM DETA-NONOate) and incubated overnight, reaching approximately 70% confluency by the following day. Cells were treated with varying concentrations (0-1.78 mM) of hydrogen peroxide (30% w/w solution, Sigma H1009, Sigma-Aldrich Corp., St. Louis, Mo., USA) and incubated at 37° C. for an additional 24 h. MTT cell viability/proliferation assays were then performed, as described above. A minimum of four replicate wells were measured for each cell line at each concentration, and assays were repeated in triplicate. Data were normalized against the mean of the untreated control cells, and values lying outside of two standard deviations were removed. Data were plotted as the mean normalized absorbance±standard error.

[4] = tested on: BT-20 parent and HNO cells
Method: as §2

[5] = tested on: SCC056 parent and HNO cells
Method: as §2

[6] = tested on: HNSCC parent and HNO cells; conditions: 24 h exposure, HNSCC cell lines
Method: as §2

[7] = tested on: T-47D parent and HNO cells
Method: as §2

[8] = tested on: four breast adenocarcinoma cell line pairs, parent and HNO cells; conditions: 24 h exposure, T-47D, Hs578T, BT-20, MCF-7 pairs
Method: as §2

[9] = tested on: SCC016 parent and HNO cells
Method: as §2

[10] = tested on: Hs578t parent and HNO cells
Method: as §2

[11] = tested on: A549 parent and A549-HNO cells
Method: as §2

[12] = tested on: SCC116 parent and HNO cells
Method: as §2

[13] = tested on: SCC040 parent and HNO cells
Method: as §2

[14] = tested on: SCC114 parent and HNO cells
Method: as §2

| Compound | half-life [1] | survival of parent cells placed directly into HNO environment (parent A549 cells) | minimum concentration studied that was completely lethal to the cells (tumor cell lines) | survival of parent cells in media containing the NO donor (LP07 parent cells) | survival of parent cells in media containing the NO donor [2] | H2O2 Resistance: highest concentration of H2O2 that the HNO cell lines grow in which the parent cell lines do not survive [3] | H2O2 Resistance: highest concentration of H2O2 that the HNO cell lines grow in which the parent cell lines do not survive [4] | H2O2 Resistance: highest concentration of H2O2 that the HNO cell lines grow in which the parent cell lines do not survive [5] | concentrations that killed both parent and HNO cells [6] | H2O2 Resistance: highest concentration of H2O2 that the HNO cell lines grow in which the parent cell lines do not survive [7] | concentrations at which both parent and HNO cells were killed [8] | H2O2 Resistance: highest concentration of H2O2 that the HNO cell lines grow in which the parent cell lines do not survive [9] | H2O2 Resistance: highest concentration of H2O2 that the HNO cell lines grow in which the parent cell lines do not survive [10] | concentrations at which both parent and HNO cells were killed ([11]; 24 h exposure, A549 and A549-HNO) | H2O2 Resistance: highest concentration of H2O2 that the HNO cell lines grow in which the parent cell lines do not survive ([11]; A549) | H2O2 Resistance: highest concentration of H2O2 that the HNO cell lines grow in which the parent cell lines do not survive [12] | H2O2 Resistance: highest concentration of H2O2 that the HNO cell lines grow in which the parent cell lines do not survive [13] | H2O2 Resistance: highest concentration of H2O2 that the HNO cell lines grow in which the parent cell lines do not survive [14] |
| --- | --- | --- | --- | --- | --- | --- | --- | --- | --- | --- | --- | --- | --- | --- | --- | --- | --- | --- |
| (Z)-1-[2-(2-aminoethyl)-N-(2-ammonioethyl) amino]diazen-1-ium-1,2-diolate [DETA-NONOate] | approximately 24 h | not able to survive | 600 µM | Analogous results | completely killed | – | – | – | – | – | – | – | – | – | – | – | – | – |
| OO [H2O2, hydrogen peroxide] | – | – | – | – | – | 0.014 mM | 0.0069 mM | 0.028 mM | above 55 μM | 0.028 mM | ≥ 110 µM | 0.028 mM | 0.0069 mM | ≥ 0.055 mM | 0.055 mM | 0.028 mM | 0.028 mM | 0.55 mM |

Reference: patent US20110293525A1, “TUMOR STEM CELLS” (BOARD OF TRUSTEES OF THE UNIVERSITY OF ILLINOIS, priority 2010, published 2011)
